In patent US5952510A, “1,3-dihydro-1-(phenylalkenyl)-2H-imidazol-2-one derivatives having PDE IV and cytokine inhibiting activity” (Janssen Pharmaceutica, N.V., priority 1995, dated 1999):

Assays:
[1] = system: Dextran-induced oedema formation in mouse ear; assay: Dextran-induced oedema formation in mouse ear; type: in vivo, Male Swiss mice; conditions: 5 mg/kg, oral, one hour before intravenous dextran T500 + pontamine sky-blue dye; compared with background extravasation
Procedure: Dextran-induced oedema formation in mouse ear.
Systemic injection of dextran T500 in normal, non-sensitized mice elicits increased vascular permeability, leading to extravasation and oedema of the extremities. When dextran is injected together with a blue dye, blueing of the ears is the most prominent feature of oedematous response.
Male Swiss mice weighing 24-26 g were orally pretreated with the test compound dissolved in PEG-200 at different concentrations or solvent. One hour later, the mice were given an intravenous injection with an isotonic saline solution containing 12 mg/ml dextran T500 and 2.6 mg/ml pontamine sky-blue dye, in a volume of 0.1 ml per 10 g body weight. One hour and forty-five minutes later, the animals are sacrificed by ether and their ears removed. Extraction and quantification of the extravasated dye is done as described by Van Wauwe and Goossens (Drug Dev. Res. 1986, 8, 213-218).
The extravasation of the dye is characterized by the blueing value which is defined as the concentration of the extracted dye in both ears. The background blueing value was determined once as the mean blueing value obtained by injecting a group of mice with a saline solution containing only dextran T500 and the blue dye. Table 1 lists the percentage inhibition of the extravasation of the dye when compared with the background extravasation of the dye when the test compound was administered at a dose of 5 mg/kg.

[2] = target: T1, recombinant human MNL phosphodiesterase type IV B (Homo sapiens, UniProt Q07343); assay: Inhibition of recombinant human mononuclear lymphocyte (MNL) phosphodiesterase type IV B produced in insect cells with a baculovirus vector; type: biochemical; conditions: 0.8 μM 3H-cAMP, pH 8, 37° C., 10 min; calculated graphically
T1 construct: made in house; host or cells: insect cells infected with recombinant baculovirus
Procedure: Inhibition of recombinant human mononuclear lymphocyte (MNL) phosphodiesterase type IV B produced in insect cells with a baculovirus vector, The alleviating and/or curing effect of the instant compounds on allergic and atopic diseases was assessed by an in vitro assay system to detect an inhibiting effect on the recombinant human MNL phosphodiesterase type IV B.
Seventy-two hours after infection with recombinant baculovirus, the insect cells were harvested and pelleted at 500 g for 5 minutes. The cells were lysed in 10 ml lysis-buffer consisting of 20 mM Tris, 10 mM EGTA, 2 mM Na2 EDTA, 1% Triton-X-100, 1 mM Na3 VO4, 10 mM NaF, 2 μg/ml of leupeptine, pepstatine and aprotinine, 0.3 μg/ml benzamidine and 100 μg/ml TPCK pH 7.5. After 5 minutes on ice, solubilized cells were centrifuged at 4000 rpm for 15 minutes at 4° C. The resulting supernatant was filtered through a 0.45 μm filter (Millipore) and brought to TBS buffer (50 mM Tris, 150 mM NaCl pH 7.4).
The supernatant containing phosphodiesterase (PDE) type IV B, was subsequently loaded onto a 5 ml anti-FLAG-M2 affinity gel column, previously activated with 5 ml 100 mM glycine pH 3.5 and equilibrated with 20 ml 50 mM Tris, 150 mM NaCl pH 7.4. After washing the column with equilibration buffer, PDE IV was eluted in 1.5 ml fractions containing 37.5 μl 1M Tris pH 8. The fractions were dialyzed overnight against 20 mM Tris, 2 mM Na2 EDTA and 400 mM NaCl pH 7.5 and tested for PDE IV activity. Indentification was done on SDS PAGE and Western Blot (anti-FLAG-M2). Active fractions were pooled, brought to 10% glycerol and stored at -70° C.
The incubation mixture (pH 8) (200 μl) contained 20 mM Tris, 10 mM magnesium sulphate, 0.8 μM ^3 H-cAMP (310 mCi/mmole) and the phosphodiesterase type IV, the amount depending on the enzymatic activity. […]
The inhibiting effect of the present compounds on recombinant human MNL phosphodiesterase PDE IV B was measured at different concentrations of the instant compounds. The IC50 values (expressed in M) were calculated graphically from the thus obtained inhibition values.

T1 sequence (Q07343 whole entry): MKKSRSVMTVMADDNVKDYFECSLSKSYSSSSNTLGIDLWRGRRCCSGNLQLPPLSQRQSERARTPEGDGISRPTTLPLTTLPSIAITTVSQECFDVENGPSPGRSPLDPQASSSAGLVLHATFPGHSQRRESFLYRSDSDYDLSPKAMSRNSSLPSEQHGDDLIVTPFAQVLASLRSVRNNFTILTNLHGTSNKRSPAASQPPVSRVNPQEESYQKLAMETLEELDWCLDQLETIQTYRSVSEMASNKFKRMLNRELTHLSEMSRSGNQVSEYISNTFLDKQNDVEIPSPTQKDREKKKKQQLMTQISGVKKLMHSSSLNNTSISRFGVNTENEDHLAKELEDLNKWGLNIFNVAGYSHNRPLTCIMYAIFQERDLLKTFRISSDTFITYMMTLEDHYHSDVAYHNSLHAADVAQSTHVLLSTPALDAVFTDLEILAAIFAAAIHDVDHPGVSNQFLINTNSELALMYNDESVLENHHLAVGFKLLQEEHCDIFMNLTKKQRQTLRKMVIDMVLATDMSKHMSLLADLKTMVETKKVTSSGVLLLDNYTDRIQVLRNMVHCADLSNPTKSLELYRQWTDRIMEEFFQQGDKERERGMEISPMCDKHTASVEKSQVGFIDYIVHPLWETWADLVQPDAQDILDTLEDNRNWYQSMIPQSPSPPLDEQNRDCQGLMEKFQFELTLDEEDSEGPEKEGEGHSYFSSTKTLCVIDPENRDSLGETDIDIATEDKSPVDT

Structure (SMILES)	% inhibition of the extravasation of the dye [1]	IC50 [2]
COc1ccc(/C(=C\n2cc[nH]c2=O)CC(=O)O)cc1OC1CCCC1 [Compound 7, (Z)-3-(cyclopentyloxy)-β-[(2,3-dihydro-2-oxo-1H-imidazol-1-yl)methylene]4-methoxybenzenepropanoic acid]	49.9%	–
COc1ccc(/C(C)=C\n2ccn(C(c3ccccc3)c3ccccc3)c2=O)cc1OC1CCCC1 [Compound 12, (Z)-1-[2-[3-(cyclopentyloxy)-4-methoxyphenyl]-1-propenyl]-3-(diphenylmethyl)-2H-imidazol-2-one]	–	< 1 µM
COc1ccc(/C(=C/n2cc[nH]c2=O)c2ccccc2)cc1OC1CCCC1 [Compound 2, (E)-1-[2-[3-(cyclopentyloxy)-4-methoxyphenyl]-2-phenylethenyl]-1,3-dihydro-2H-imidazol-2-one]	15.5%	< 1 µM
COc1ccc(C(=CN2CCN(C(C)=O)C2=O)c2ccccc2)cc1OC [Compound 9, 1-acetyl-3-[2-(3,4dimethoxyphenyl)-2-phenylethenyl]-2-imidazolidinone]	11.1%	–
COc1ccc(C(=CN2CCNC2=O)c2ccccc2)cc1OC [Compound 8, 1-[2-(3,4-dimethoxyphenyl)-2-phenylethenyl]-2-imidazolidinone]	17.9%	–
COc1ccc(/C(=C\n2ccn(C(c3ccccc3)c3ccccc3)c2=O)c2ccccc2)cc1OC1CCCC1 [Compound 11, (Z)-1-[2-[3-(cyclopentyloxy)-4-methoxyphenyl]-2-phenylethenyl]-3-(diphenylmethyl)-1,3-dihydro-2H-imidazol-2-one]	19.3%	–
COc1ccc(/C(=C/n2ccn(C(c3ccccc3)c3ccccc3)c2=O)c2ccccc2)cc1OC1CCCC1 [Compound 10, (E)-1-[2-[3-(cyclopentyloxy)-4-methoxyphenyl]-2-phenylethenyl]-3-(diphenylmethyl)-1,3dihydro-2H-imidazol-2-one]	40.1%	–
CCOC(=O)C/C(=C\n1cc[nH]c1=O)c1ccc(OC)c(OC2CCCC2)c1 [Compound 4, ethyl (E)-3-(cyclopentyloxy)-β-[(2,3dihydro-2-oxo-1H-imidazol-1-yl)methylene]-4methoxybenzene-propanoate]	25.9%	< 1 µM
